Experimental data published in PubChem BioAssay (NCI).
Where “and” joins values, the source holds several entries; their conditions need not be identical. Identical values can stand only once.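 Method: 48-hour compound exposure of cells in 96-well plates, five concentrations, linear interpolation of endpoints. Here, GI50 denotes the concentration required for 50% inhibition of growth. At the TGI there is no net growth.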 Where a SMILES comes first, the peptide text is derived from it. [ ]: non-standard residue; d: D form. The star is where a group is joined. NMeF = CN[CH](Cc1ccccc1)C(=O)O; NMeV = CN[CH](C(=O)O)C(C)C; Boc = CC(C)(C)OC(=O)*

Key:
Experiment in all cases: NCI anticancer screen, dose series, 48 h
ACHN renal = tested on: ACHN renal
CCRF-CEM leukemia = tested on: CCRF-CEM leukemia
HCC-2998 colon = tested on: HCC-2998 colon
HT29 colon = tested on: HT29 colon
LOX IMVI melanoma = tested on: LOX IMVI melanoma
OVCAR-4 ovarian = tested on: OVCAR-4 ovarian
SF-295 CNS = tested on: SF-295 CNS
SK-MEL-5 melanoma = tested on: SK-MEL-5 melanoma
DU-145 prostate = tested on: DU-145 prostate
MDA-MB-435 = tested on: MDA-MB-435

Compound	TGI (ACHN renal)	TGI (CCRF-CEM leukemia)	TGI (HCC-2998 colon)	TGI (HT29 colon)	TGI (LOX IMVI melanoma)	TGI (OVCAR-4 ovarian)	TGI (SF-295 CNS)	TGI (SK-MEL-5 melanoma)	GI50 (ACHN renal)	GI50 (CCRF-CEM leukemia)	GI50 (DU-145 prostate)	TGI (DU-145 prostate)	GI50 (HCC-2998 colon)	GI50 (HT29 colon)	GI50 (OVCAR-4 ovarian)	GI50 (SF-295 CNS)	GI50 (SK-MEL-5 melanoma)	GI50 (LOX IMVI melanoma)	GI50 (MDA-MB-435)	TGI (MDA-MB-435)
Cc1nc(N)sc1C(=O)/C=C\c1ccc2c(c1)OCO2	> 100 µM	> 100 µM	> 100 µM	> 100 µM	> 100 µM	> 100 µM	> 100 µM	> 100 µM												
CCOc1ccccc1NC(=O)CC(C(=O)OC)C(=O)C(=O)OC (stereo unspecified)	> 100 µM	> 100 µM	> 100 µM	> 100 µM	> 100 µM	> 100 µM	> 100 µM	> 100 µM												
CC(C)C(NC(=O)OC(C)(C)C)C(=O)N(C)C(Cc1ccccc1)C(=O)N(C)C(C(=O)O)C(C)C (stereo not drawn) (Boc-Val-[NMeF]-[NMeV]-OH; configuration not given here)	71 µM and > 100 µM	> 100 µM	> 100 µM	> 100 µM	> 100 µM		> 100 µM	> 100 µM	23.1 µM and > 100 µM											
COc1cc2c(cc1OC)C(CC(=O)NN=C(C)C)NCC2 (stereo unspecified)	> 100 µM	> 100 µM	> 100 µM	> 100 µM	> 100 µM	> 100 µM	> 100 µM	> 100 µM												
Cn1c(=O)c(C(c2ccc([N+](=O)[O-])cc2)c2c(O)c3ccccc3n(C)c2=O)cc2ccccc21 (stereo unspecified)	> 100 µM		> 100 µM	> 100 µM	> 100 µM	> 100 µM	> 100 µM	> 100 µM												
Cc1cn(C2CC(O)C(CO)O2)c(=O)n2nnnc12 (stereo unspecified)		> 100 µM	> 100 µM	> 100 µM	> 100 µM	> 100 µM	> 100 µM	> 100 µM												
Cc1cc(C(=O)Nc2ncc(Cc3cccc(C(F)(F)F)c3)s2)c2ccccc2n1	> 100 µM	> 100 µM	> 100 µM	> 100 µM		> 100 µM	> 100 µM	> 100 µM	0.339 µM	2.54 µM	3.47 µM	> 100 µM	1.11 µM	1.14 µM	4.02 µM	1.63 µM	1.03 µM			
Clc1ccc(C2=Nn3c(COc4ccccc4Cl)nnc3SC2)c(Cl)c1	51.6 µM	> 100 µM		27 µM	28.7 µM	> 100 µM	87 µM	28.5 µM	17.3 µM	30.6 µM	19.8 µM	86.1 µM		14 µM	26.9 µM	10.3 µM	12.6 µM	15.2 µM	20.1 µM	84.5 µM
OC[C@H]1CCCC1O (stereo partly specified)	> 100 µM	> 100 µM	> 100 µM	> 100 µM		> 100 µM	> 100 µM	> 100 µM				> 100 µM								> 100 µM
NC(N)=N/N=C(\c1nc2ccc([N+](=O)[O-])cc2[nH]c1=O)C(O)c1ccc([N+](=O)[O-])cc1 (stereo unspecified)	> 100 µM	> 100 µM	79.8 µM	> 100 µM	> 100 µM	> 100 µM	> 100 µM	> 100 µM												
COC1(OC)C2(Cl)C(Cl)=C(Cl)C1(Cl)C1C=CC=CC12 (stereo unspecified)	> 100 µM		> 100 µM	> 100 µM	> 100 µM	> 100 µM	> 100 µM	> 100 µM												
COc1ccccc1CCc1cc(OC)c(OC)c(OC)c1	> 100 µM	> 100 µM		> 100 µM	> 100 µM	> 100 µM	> 100 µM	42.7 µM												
Cc1cc(Cl)ccc1N=C1NC(=O)C(CC(=O)Nc2ccc([N+](=O)[O-])cc2[N+](=O)[O-])S1 (stereo unspecified)	71.4 µM	> 100 µM	> 100 µM	> 100 µM	> 100 µM	56.3 µM	59.5 µM	31.1 µM												
COc1ccc(C(=O)C(C(=O)CCC(=O)Nc2cccc(Cl)c2)c2ccc(OC)cc2)cc1 (stereo unspecified)	> 100 µM	> 100 µM	> 100 µM	> 100 µM		> 100 µM	> 100 µM	> 100 µM												
Cc1cccc(NC(=O)/C(=N\NC(C)(C)C)C2NC(=S)NC2=O)c1C (stereo unspecified)	> 100 µM	> 100 µM	> 100 µM			> 100 µM	> 100 µM	> 100 µM												
COC(=O)C1=C(C)N(NC(=O)OC(C)(C)C)C(=O)C1=P(c1ccccc1)(c1ccccc1)c1ccccc1	> 100 µM	> 100 µM	> 100 µM	> 100 µM	> 100 µM	> 100 µM	> 100 µM	> 100 µM												
CC(C)(C)c1ccc2c(c1)S(=O)(=O)Nc1ccccc1NS(=O)(=O)c1cc(C(C)(C)C)ccc1OCCOCCOCCO2	> 100 µM	> 100 µM	> 100 µM	> 100 µM	> 100 µM	48 µM	> 100 µM	> 100 µM												
COC1=C(C)C(=O)c2c(c(COC(N)=O)c3n2CC2C3N2C)C1=O (stereo unspecified)	< 0.0139 µM	0.105 µM		0.314 µM	0.053 µM	0.244 µM	0.0261 µM	0.15 µM				0.0542 µM								0.0921 µM
CC(C)(C)c1cc(Br)c(O)c(CN(Cc2cc(C(C)(C)C)cc(Br)c2O)C2CCCCC2)c1	28.1 µM	26.6 µM		19.3 µM	29.8 µM	22.3 µM	25.3 µM	22.8 µM				26.8 µM								27.4 µM
COc1ccc(/C=C/c2ccnc3ccccc23)c(OC)c1	> 10 µM	> 10 µM	> 10 µM		> 10 µM	> 10 µM	> 10 µM	> 10 µM				> 10 µM								5.09 µM
CC1(C)SCc2nc3ncccc3n21	> 100 µM	> 100 µM	> 100 µM	> 100 µM	> 100 µM	> 100 µM	> 100 µM	> 100 µM												
COC(=O)/C(=N\Nc1nnc(C)n1N)C(C#N)c1ccc(Cl)cc1 (stereo unspecified)	> 100 µM		> 100 µM	> 100 µM	> 100 µM	> 100 µM	> 100 µM													
CC1CC[C@]2(C(=O)O)CCC3(C)C(=CC(=O)C4[C@@]5(C)CCC(=O)C(C)(C)C5CC[C@]43C)[C@@H]2[C@H]1C (stereo partly specified)	> 100 µM	58.9 µM		> 100 µM	42.8 µM	> 100 µM	> 100 µM	> 100 µM												
